Each compound was assayed on SK-MEL-5 TRPM1-promoter luciferase reporter, 24 h (assay: reducers of TRPM1 reporter luminescence, concentration series – cell-based, SK-MEL-5, cherry-picked, set 4, MITF inhibitor project, dose response (AID 493102);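 also: actives lower the luciferase signal so the potency reflects inhibition of reporter expression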).

Compound	AC50 [µM]
Cc1ccc2c(C(=O)CCl)c(C)[nH]c2c1	8.17
Clc1cccc(-c2nc(-c3ccccn3)no2)c1	5.92
O=C(O)/C=C/C(=O)c1ccc2c(c1)CCc1ccccc1-2	15
CCC(C)(C)c1ccc(OCCCC[n+]2ccccc2)c(C(C)(C)CC)c1	4.35
CCOc1ccc(-n2c(O)c(/C=N/Nc3nc(C)cc(C)n3)c3ccccc3c2=O)cc1	3.48
COC1=C(Nc2ccccc2)C(=O)c2ccccc2C1=O	4.53
CCN(CC)S(=O)(=O)c1ccc(NC(=O)c2cccnc2Cl)c(NC(=O)c2cccnc2Cl)c1	7.03
Cc1ccc(S(=O)(=O)/N=C2\C(=O)c3ccccc3C([O-])=C2n2cc[n+](CCC(C)C)c2)cc1	4.11
CC(NC(=O)C12CC3CC(CC(C3)C1)C2)C(=O)NN=Cc1ccc([N+](=O)[O-])o1 (centres undefined)	7.79
Cc1ccccc1OCC(=O)Nc1cccc(C(=O)O)c1	1.05
CC(=O)Nc1ccc(S(=O)(=O)N2CCn3cccc3C2C)cc1 (centres undefined)	28.7
COc1ccc(C(=O)/C=C/C(=O)N(CC(=O)NC2CCCCC2)Cc2ccccc2)c(O)c1	5.24
COCCN(CC(=O)NC1CCCCC1)C(=O)/C=C/C(=O)c1ccc(OC)cc1O	5.48
COc1ccc(C(NC(C)=O)c2ccc3cccnc3c2O)c(OC)c1 (centres undefined)	5.15
O=C(O)CSCC(=O)Nc1ccc(C2CCCCC2)cc1	2.12
Cc1nc2ccccc2n1/N=C/c1ccc([N+](=O)[O-])s1	3.51
CC1CCN(Cc2nc(-c3ccc(Cl)cc3)no2)CC1	7.62
C/C(=N/NC(=O)C(O)(c1ccccc1)c1ccccc1)c1ccc([N+](=O)[O-])o1	9.84
O=C(Nc1ccc(Nc2ccncc2)cc1)c1ccc([N+](=O)[O-])cc1	7.22
O=C(O)c1cc2ccccc2c(N=Nc2cccnc2)c1O	11.4
CN(C)CCNC(=O)/C(=C/c1ccc(-c2ccc(Cl)cc2Cl)o1)NC(=O)c1ccccc1	4.97
COc1ccc(C(=O)/C=C/Nc2ccccn2)cc1	3.72
O=S1(=O)CCC(NC(=S)SCc2ccccc2Br)C1 (centres undefined)	25.6

Compound	AC50 [µM]
COc1ccc(C)cc1Nc1nc(N)c2cc(OC)c(OC)cc2n1	14.2
COc1cc(/C=C/C(=O)c2ccc3c(c2)OCCO3)cc(Br)c1OCC(=O)N(C)C	6.17
CCN1/C(=C/c2cc[n+](C)cc2)C=Cc2cc(C)ccc21	1.74
CN(C)CCCNC(=O)/C(=C\c1ccc(-c2ccc(Br)cc2)o1)NC(=O)c1ccccc1	7.51
COc1ccc2c(C)nc(Nc3nc(-c4ccccc4)cc(=O)[nH]3)nc2c1	2.91
CN(C)S(=O)(=O)c1ccc(-c2csc(N/N=C/c3ccc(O)cc3)n2)cc1	4.6
Cc1cc(C)cc(NC(=O)c2ccc([N+](=O)[O-])o2)c1	16.6
CC(C)(C)NC(=O)CCN(/N=C/c1ccc([N+](=O)[O-])o1)C1=NS(=O)(=O)c2ccccc21	7.18
Cc1ccc(NC(=O)Cn2ncc(Cl)c(Cl)c2=O)cc1S(=O)(=O)N1CCCCC1	13.7
CC1CCN(c2nc3ccc(C(=O)O)cc3s2)CC1	1.25
NC(=O)c1cc([N+](=O)[O-])ccc1NCc1ccc(N)cc1	1.41
O=C(Nc1nc(-c2ccccn2)cs1)c1ccc([N+](=O)[O-])o1	10.8
O=C1Nc2ccc(Br)cc2/C1=C/C(=O)c1ccc2c(c1)OCO2	25.5
O=C(Nc1ccc2oc(-c3cccnc3)nc2c1)c1ccc([N+](=O)[O-])o1	14.2
COc1cccc(/C=N/Nc2ccc(C(=O)O)cc2)c1O	0.333
O=C(/C=C/c1cccc([N+](=O)[O-])c1)c1cccs1	15.3
CCOc1cc(/C=C2/NC(=S)NC2=O)ccc1OCc1ccc([N+](=O)[O-])cc1	8.19
C1CCC(C(CC2CCCCN2)C2CCCCC2)CC1 (centres undefined)	18.8
Nc1ccc(-c2ncc(-c3ccccc3)o2)cc1	0.171
O=C(c1ccccc1)C(CN1CCCC1)c1ccccc1 (centres undefined)	5.33
CS(=O)(=O)c1ccc(C(=O)OCC(=O)NCc2cccs2)cc1[N+](=O)[O-]	11.7
O=C(Nc1nc(-c2ccccn2)cs1)c1ccc(F)c(S(=O)(=O)N2CCOCC2)c1	5.7
COc1ccccc1CNCC(O)Cn1c2ccccc2c2ccccc21 (centres undefined)	18.7

Compound	AC50 [µM]
Nc1nc2n[nH]nc2c(=O)[nH]1	0.875
Cc1cccc(N2C(=O)NC(=O)/C(=C\C=C\c3ccco3)C2=O)c1	5.75
CC(C)(C)c1ccc(OCCCNCc2ccccc2)cc1	18.4
CC(=O)N1CCc2c(sc(NC(=O)c3ccc([N+](=O)[O-])o3)c2C#N)C1	2.22
CN(C)c1ccc(NC(=S)c2ccccn2)cc1	2.84
O=c1c2ccccc2cnn1CCOc1ccccc1	7.2
O=C1NC2c3c(I)sc(I)c3C(=O)C2O1 (centres undefined)	15.5
CCCC(=O)NC(c1ccc(OC)c(OC)c1)c1cc(Cl)c2cccnc2c1O (centres undefined)	9.06
Cc1cc(N2CCOCC2)ccc1/C=C\[N+](=O)[O-]	22.5
CC1=C/C(=N\NC(=S)Nc2cccnc2)CC(C)(C)C1	11
CCC(=O)N1CCN(c2ccc(Cl)cc2NC(=O)c2ccc([N+](=O)[O-])o2)CC1	12.4
COc1cc(NC(=O)COc2cc(O)c3c(c2)OC(C)(C)CC3=O)cc(OC)c1OC	5.36
CCOCCCNC(=O)/C(C#N)=C/c1ccc(Cl)c([N+](=O)[O-])c1	7.38
CCn1c(=O)c([N+](=O)[O-])c(Cl)c2ccccc21	7.2
Nc1ccc(-c2nc3ccc(C(=O)O)cc3s2)cc1	0.866
CC1=NC(=O)C(N=Nc2cccc(C(=O)O)c2)N1c1ccccc1 (centres undefined)	8.62
OCCNc1c2ccccc2nc2c(F)c(F)c(F)c(F)c12	4.14
O=C(CCl)Nc1cccc(Oc2ccccc2)c1	8.07
CC(=O)Nc1nc(C)c(-c2csc(Nc3cccc(C(C)=O)c3)n2)s1	8.38
Cc1c(Cl)c([N+](=O)[O-])nn1Cc1ccc(C(=O)N/N=C\c2cc(Cl)ccc2O)o1	3.47
CC(C)=NOc1cc(NC(=O)CCl)cc([N+](=O)[O-])c1	6.18
COC(=O)c1ccc2c(c1O)C(=O)c1ccccc1C2=O	1.61
C(#Cc1ccccc1)C[N+]1(CC#Cc2cccc3ccccc23)CCCC1	6.21

Compound	AC50 [µM]
C=CCN=C1NN=C(c2ccc3c(c2)OCCO3)CS1	3.37
COc1cccc(C(=O)Nc2ccc3c(cc2=O)[C@@H](NC(C)=O)CCc2cc(OC)c(OC)c(OC)c2-3)c1	8.43
O=C(/C=C/c1ccc([N+](=O)[O-])s1)N1CCCCC1	4.16
Cc1cc(NCCCn2ccnc2)n2ncc(-c3ccccc3)c2n1	11
CCOc1cc(NC(=O)CCl)c(OCC)cc1NC(=O)CCl	5.5
O=[N+]([O-])c1cccc2c(N3CCCC3)ccnc12	2.47
Cc1cc(C)c2c(N)c3cccc(C)c3nc2n1	3.21
Cc1ccccc1OCC(=O)N/N=C/c1ccc([N+](=O)[O-])o1	8.22
Cc1scc(C(=O)N/N=C/c2ccc([N+](=O)[O-])o2)c1C	2.19
COc1ccccc1NC(=O)c1nc(S(=O)(=O)Cc2ccccc2)ncc1Cl	8.91
COc1cc(OC)cc(-c2oc(=O)c3cc(OC)c(OC)cc3c2C(F)(F)F)c1	12.8
COc1ccc(C(C(=O)NC2CCCCC2)N(C(=O)CCl)c2ccc(OC)cc2)cc1 (centres undefined)	9.27
CC1CCCC(NCC(O)COC(c2ccc(F)cc2)c2ccc(F)cc2)C1C (centres undefined)	10.8
O=C(Nc1ccc(S(=O)(=O)N2CCCCCC2)cc1)c1[nH]ncc1[N+](=O)[O-]	4.02
O=C(Nc1ccc(S(=O)(=O)NC2=NCCCCC2)cc1)c1ccc([N+](=O)[O-])s1	5.11
O=C(NC1=C(Nc2ccc(Cl)cc2)C(=O)c2ccccc2C1=O)c1ccccc1	0.93
Cc1ccn2c(Nc3ccccc3)c(-c3ccccn3)nc2c1	9.31
O=C(c1ccc(F)cc1)C(CN1CCOCC1)c1ccccc1 (centres undefined)	5.96
CC(C)c1ccc(N2C(=O)NC(=O)/C(=C/C=C/c3ccco3)C2=O)cc1	5.89
Cn1nnnc1Sc1ncnc2scc(-c3ccc(C#N)cc3)c12	4.98
O=C(CCl)N(c1ccccc1)c1c[nH]c2ccccc12	5.08
CCSC1(SCC)N=C(N)C2(C#N)C(c3ccc(F)cc3)C12C#N (centres undefined)	14
CCN(CC)CCn1nc2c3c(cccc3c1=O)-c1ccccc1-2	5.92

Compound	AC50 [µM]
CCOC(=O)c1c(NC(C)=O)sc2c(OCC(O)CNC(C)(C)C)c(Br)ccc12 (centres undefined)	7.72
O=C1NC(=O)C(=Cc2ccc(-c3cc(Cl)ccc3[N+](=O)[O-])o2)C(=O)N1	17.2
O=C(N/N=C/c1cc([N+](=O)[O-])ccc1N1CCNCC1)c1ccc([N+](=O)[O-])cc1	8.19
CN(C)CCNc1ccc2nnn3c4ccc(O)cc4c(=O)c1c23	4.73
Cc1nc(C)c(C(=O)N/N=C/c2cc(Br)ccc2O)s1	3.66
Cn1c(/C=C/c2cccc([N+](=O)[O-])c2)c([N+](=O)[O-])c(=O)n(C)c1=O	27.8
CN1CCN(C2=C(NS(=O)(=O)c3ccccc3)C(=O)c3ccccc3C2=O)CC1	6.9
COc1cccc(-c2csc3ncnc(Sc4nnnn4C)c23)c1	25
Cc1ccc(C(=O)N/N=C\c2ccc([N+](=O)[O-])s2)cn1	2.95
COc1ccc(-c2cc(-c3ccccc3)[n+](C)c(-c3ccccc3)c2)cc1	3.2
O=C(CCl)N1CCN(S(=O)(=O)c2ccc3c(c2)CCC3)CC1	20.8
COc1ccc(CCn2c(=S)[nH]c3cc(C(=O)NCc4ccco4)ccc3c2=O)cc1OC	17.7
Cc1[nH]c2ccccc2c1C(=O)CCl	6.78
O=C(COC(=O)CCN1C(=O)/C(=C\C=C\c2ccccc2)SC1=S)Nc1cc(F)ccc1F	7.49
CC(C)(C)c1ccc(-c2cn(-c3ccc(Br)cc3)c3[n+]2CCCS3)cc1	3.2
COc1cnc(-c2ccccn2)nc1NC(C)C	12.4
O=C1NC(=O)N(c2ccccc2)C(=O)/C1=C/C=C/c1ccco1	8.29
COC(=O)C1=C(C)N(Cc2ccccc2)C(=NCCc2cccnc2)N[C@H]1c1ccc(Br)cc1	17.8
CC(C)CN=C(NS(=O)(=O)c1ccccc1)C(Cl)(Cl)Cl	11.1
CCC(=O)Nc1cc2nn(-c3ccc(C)cc3)nc2cc1C	4.15
O=C1/C(=C/c2ccccc2[N+](=O)[O-])COc2ccccc21	9.8
CC1CC(C)C[N+](=C2C=C(N3CCCC3)CC(C)(C)C2)C1 (centres undefined)	2.24
